The source made the active and inactive calls. No cut-off for these calls is given here.
Experiments:
[1] = test system: rhinovirus B14; test: Antiviral activity against HRV 14 infected in human HeLa cells assessed as reduction in plaque number after 3 days by neutral red assay; assay type: functional, organism-based; conditions: Rhinovirus B, 72 h
[2] = Selectivity index, ratio of CC50 for human HeLa cells to IC50 for HRV 14 infected in human HeLa cells; assay type: functional
[3] = test system: rhinovirus A1B; test: Antiviral activity against HRV 1B infected in human HeLa cells assessed as reduction in plaque number after 3 days by neutral red assay; assay type: functional, organism-based, Human rhinovirus 1B; conditions: Rhinovirus A, 72 h
[4] = Cytotoxicity against human HeLa cells assessed as reduction in cell viability after 3 days by XTT assay; assay type: cell-based; conditions: for MNTC at 72 h: read-out: MNCC
[5] = Selectivity index, ratio of CC50 for human HeLa cells to IC50 for HRV 1B infected in human HeLa cells; assay type: functional
[6] = test system: rhinovirus B14; test: Antiviral activity against HRV 14 infected in human HeLa cells assessed as log reduction in infectivity at 58 uM after 10 hrs by plaque assay at 56 degC relative to control; assay type: functional
[7] = test system: rhinovirus B14; test: Antiviral activity against HRV 14 infected in human HeLa cells assessed as inhibition of viral yield at 58 uM treated at 1 hr after virus adsorption period measured after 10 hrs by plaque assay relative to control; assay type: functional; conditions: Rhinovirus B
[8] = test system: rhinovirus A1B; test: Antiviral activity against HRV 1B infected in human HeLa cells assessed as inhibition of viral yield compound treated at 43 uM during 1 hr at 4 degC followed by compound washout by plaque assay; assay type: functional, Human rhinovirus 1B; conditions: Rhinovirus A
[9] = test system: rhinovirus A1B; test: Antiviral activity against HRV 1B infected in human HeLa cells assessed as inhibition of viral yield compound treated at 43 uM prior to 1 hr incubated at 4 degC followed by 10 hrs at 33 degC infection period by plaque assay; assay type: functional, Human rhinovirus 1B
[10] = test system: rhinovirus B14; test: Antiviral activity against HRV 14 infected in human HeLa cells assessed as half-maximal reduction of viral yield at 58 uM treated 1 hr post adsorption period measured after 10 hrs by plaque assay; assay type: functional, organism-based
[11] = test system: rhinovirus A1B; test: Antiviral activity against HRV 1B infected in human HeLa cells assessed as inhibition of viral yield at 43 uM treated at 1 hr after virus adsorption period measured after 10 hrs by plaque assay relative to control; assay type: functional, Human rhinovirus 1B; conditions: Rhinovirus A
[12] = test system: rhinovirus B14; test: Antiviral activity against HRV 14 infected in human HeLa cells assessed as maximal reduction of viral yield at 58 uM treated 6 hrs post adsorption period measured after 10 hrs by plaque assay; assay type: functional, organism-based
[13] = test system: rhinovirus B14; test: Antiviral activity against HRV 14 infected in human HeLa cells assessed as inhibition of viral yield compound treated at 58 uM during 1 hr at 4 degC followed by compound washout by plaque assay; assay type: functional; conditions: Rhinovirus B
[14] = test system: rhinovirus A1B; test: Antiviral activity against HRV 1B infected in human HeLa cells assessed as half-maximal reduction of viral yield at 43 uM treated 45 mins post adsorption period measured after 10 hrs by plaque assay; assay type: functional, organism-based; conditions: Human rhinovirus 1B
[15] = test system: rhinovirus B14; test: Antiviral activity against HRV 14 infected in human HeLa cells assessed as inhibition of viral yield at 58 uM treated during 10 hrs multiplication period by plaque assay relative to control; assay type: functional; conditions: Rhinovirus B
[16] = test system: rhinovirus B14; test: Antiviral activity against HRV 14 infected in human HeLa cells assessed as inhibition of viral yield compound treated at 58 uM prior to 1 hr incubated at 4 degC followed by 10 hrs at 33 degC infection period by plaque assay; assay type: functional
[17] = test system: rhinovirus A1B; test: Antiviral activity against HRV 1B infected in human HeLa cells assessed as inhibition of viral yield at 43 uM treated during 10 hrs multiplication period by plaque assay relative to control; assay type: functional, Human rhinovirus 1B; conditions: Rhinovirus A
[18] = test system: rhinovirus A1B; test: Antiviral activity against HRV 1B infected in human HeLa cells assessed as inhibition of viral yield compound treated at 43 uM for 1 hr prior infection followed by compound wash-out by plaque assay; assay type: functional, Human rhinovirus 1B; conditions: Rhinovirus A
[19] = test system: rhinovirus A1B; test: Antiviral activity against HRV 1B infected in human HeLa cells assessed as log reduction in infectivity at 43 uM after 10 hrs by plaque assay at 56 degC relative to control; assay type: functional, Human rhinovirus 1B
[20] = test system: rhinovirus A1B; test: Antiviral activity against HRV 1B infected in human HeLa cells assessed as reduction of viral yield at 43 uM treated 2 hrs post infection measured after 10 hrs by plaque assay; assay type: functional, organism-based; conditions: Human rhinovirus 1B
[21] = test system: rhinovirus A1B; test: Antiviral activity against HRV 1B infected in human HeLa cells assessed as log reduction in infectivity at 43 uM after 10 hrs by plaque assay at pH 5.0 relative to control; assay type: functional, Human rhinovirus 1B
[22] = test system: rhinovirus A1B; test: Antiviral activity against HRV 1B infected in human HeLa cells assessed as maximal reduction of viral yield at 43 uM treated 4 hrs post adsorption period measured after 10 hrs by plaque assay; assay type: functional, organism-based; conditions: Human rhinovirus 1B
[23] = test system: rhinovirus B14; test: Antiviral activity against HRV 14 infected in human HeLa cells assessed as log reduction in infectivity at 58 uM after 10 hrs by plaque assay at pH 5.0 relative to control; assay type: functional
[24] = test system: rhinovirus B14; test: Antiviral activity against HRV 14 infected in human HeLa cells assessed as reduction of viral yield at 58 uM treated 4 hrs post infection measured after 10 hrs by plaque assay; assay type: functional, organism-based
[25] = test system: rhinovirus B14; test: Antiviral activity against HRV 14 infected in human HeLa cells assessed as inhibition of viral yield compound treated at 58 uM for 1 hr prior infection followed by compound wash-out by plaque assay; assay type: functional; conditions: Rhinovirus B
[26] = test system: rhinovirus A1B; test: Antiviral activity against HRV 1B infected in human HeLa cells assessed as reduction in plaque number at maximum non-cytotoxic concentration after 3 days by neutral red assay; assay type: functional, Human rhinovirus 1B; set-up: scale not given: the % may be the effect or the level left

SMILES | IC50 [1] [µM] | Ratio CC50/IC50 [2] | IC50 [3] [µM] | CC50 at 72 h [4] [µM] | MNTC at 72 h [4] [µM] | Ratio CC50/IC50 [5] | other results
C1=C(/C=C/c2cccnc2)COc2ccccc21 | 3.88 | 19.33 | 4.57 | 75 | 25 | 16.41 | –
O=c1c(/C=C/c2ccccn2)coc2ccc(Cl)cc12 | 5.1 | >9.8 | 1.6 | > 50 | > 50 | >31.25 | –
Clc1ccc2c(c1)C=C(/C=C/c1ccccn1)CO2 | 8.96 | >5.58 | 1.69 | > 50 | > 50 | >29.59 | –
O=c1c(/C=C/c2ccncc2)coc2ccc(Cl)cc12 | 15.6 | 9.6 | 19.1 | 150 | 100 | 7.87 | –
C1=C(/C=C/c2ccncc2)COc2ccccc21 | 3.03 | 24.75 | 1.96 | 75 | 50 | 38.26 | –
C1=C(/C=C/c2ccccn2)COc2ccccc21 | 2.93 | >17.06 | 1.7 | > 50 | > 50 | >29.41 | FC [6]: 0.9; inhibition at 58 µM [7]: 90%; inhibition at 43 µM [8]: 14%; inhibition (INH) [9]: 90%; Activity [10]: Active; inhibition at 43 µM [11]: 90%; Activity [12]: Active; inhibition at 58 µM [13]: 16%; Activity [14]: Active; inhibition at 58 µM [15]: 90%; inhibition (INH) [16]: 90%; inhibition at 43 µM [17]: 90%; inhibition at 43 µM [18]: 24%; FC [19]: 1.1; Activity [20]: inactive; FC [21]: 1; Activity [22]: Active; FC [23]: 0.9; Activity [24]: inactive; inhibition at 58 µM [25]: 1%
Clc1ccc2c(c1)C=C(/C=C/c1ccncc1)CO2 | 6.71 | 11.17 | 4.74 | 75 | 50 | 15.82 | –
C1=C(/C=C\c2cccnc2)COc2ccccc21 | 9.37 | 4 | 0.98 | 37.5 | 25 | 38.26 | –
Clc1ccc2c(c1)C=C(/C=C/c1cccnc1)CO2 | 4.27 | 8.78 | 4.34 | 37.5 | 25 | 8.64 | –
O=c1c(/C=C/c2ccncc2)coc2ccccc12 | 92.1 | >1.08 | > 100 | > 100 | > 100 | – | Activity [26]: 22%
O=c1c(/C=C/c2ccccn2)coc2ccccc12 | 7.08 | >28.25 | 5.15 | > 200 | > 200 | >38.84 | –
O=c1c(/C=C\c2cccnc2)coc2ccc(Cl)cc12 | 10.1 | 4.94 | 4.26 | 50 | 25 | 11.74 | –
O=c1c(/C=C\c2cccnc2)coc2ccccc12 | 15.4 | >12.98 | 46.8 | > 200 | > 200 | >4.28 | –
C1=C(/C=C\c2ccncc2)COc2ccccc21 | 2.9 | 17.24 | 0.71 | 50 | 25 | 70.42 | –

— ChEMBL document CHEMBL3102715, “Synthesis and anti-rhinovirus activity of novel 3-[2-(pyridinyl)vinyl]substituted -2H-chromenes and -4H-chromen-4-ones” (Bioorg Med Chem, 2014)
